Assay results: PubChem BioAssay (NCI)
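GI50 is the concentration that inhibits growth by half. At the TGI there is no net growth.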

Experiments:
Experiment in all cases: growth of human tumour cells (NCI), 384-well format
786-0 renal = test system: 786-0 renal
A498 renal = test system: A498 renal
A549 NSCLC = test system: A549 NSCLC
ACHN renal = test system: ACHN renal
BT-549 breast = test system: BT-549 breast
CAKI-1 renal = test system: CAKI-1 renal
CCRF-CEM leukemia = test system: CCRF-CEM leukemia
COLO 205 colon = test system: COLO 205 colon
DU-145 prostate = test system: DU-145 prostate
HCC-2998 colon = test system: HCC-2998 colon
HCT-116 colon = test system: HCT-116 colon
HCT-15 colon = test system: HCT-15 colon
HL-60(TB) leukemia = test system: HL-60(TB) leukemia
HOP-62 NSCLC = test system: HOP-62 NSCLC
HOP-92 NSCLC = test system: HOP-92 NSCLC
HT29 colon = test system: HT29 colon
K-562 leukemia = test system: K-562 leukemia
KM12 colon = test system: KM12 colon
LOX IMVI melanoma = test system: LOX IMVI melanoma
M14 melanoma = test system: M14 melanoma
MALME-3M melanoma = test system: MALME-3M melanoma
MCF7 breast = test system: MCF7 breast
MDA-MB-231 breast = test system: MDA-MB-231 breast
MDA-MB-435 melanoma = test system: MDA-MB-435 melanoma
MDA-MB-468 breast = test system: MDA-MB-468 breast
MOLT-4 leukemia = test system: MOLT-4 leukemia
NCI-H226 lung = test system: NCI-H226 lung
NCI-H23 lung = test system: NCI-H23 lung
NCI-H322M lung = test system: NCI-H322M lung
NCI-H460 NSCLC = test system: NCI-H460 NSCLC
NCI-H522 lung = test system: NCI-H522 lung
NCI/ADR-RES ovarian = test system: NCI/ADR-RES ovarian
OVCAR-3 ovarian = test system: OVCAR-3 ovarian
OVCAR-4 ovarian = test system: OVCAR-4 ovarian
OVCAR-5 ovarian = test system: OVCAR-5 ovarian
OVCAR-8 ovarian = test system: OVCAR-8 ovarian
PC-3 prostate = test system: PC-3 prostate
RPMI-8226 leukemia = test system: RPMI-8226 leukemia
RXF 393 renal = test system: RXF 393 renal
SF-268 CNS = test system: SF-268 CNS
SF-295 CNS = test system: SF-295 CNS
SF-539 CNS = test system: SF-539 CNS
SK-MEL-2 melanoma = test system: SK-MEL-2 melanoma
SK-MEL-28 melanoma = test system: SK-MEL-28 melanoma
SK-MEL-5 melanoma = test system: SK-MEL-5 melanoma
SK-OV-3 ovarian = test system: SK-OV-3 ovarian
SN12C renal = test system: SN12C renal
SNB-19 CNS = test system: SNB-19 CNS
SR leukemia = test system: SR leukemia
SW-620 colon = test system: SW-620 colon
T-47D breast = test system: T-47D breast
TK-10 renal = test system: TK-10 renal
U251 glioblastoma = test system: U251 glioblastoma
UACC-257 melanoma = test system: UACC-257 melanoma
UACC-62 melanoma = test system: UACC-62 melanoma
UO-31 renal = test system: UO-31 renal

For `CCN1C(C)(C)CC(Oc2ccc(C(=O)Nc3ccc(NC(=O)Nc4cc(C(C)(C)C)on4)cc3)nc2)CC1(C)C`, the GI50 ([…]-0 renal) was 1520 nM, the TGI (786-0 renal) was 2870 nM and the GI50 (A498 renal) was 1600 nM. For the same molecule, the TGI (A498 renal) was 3020 nM, the GI50 (A549 NSCLC) was 1830 nM and the TGI (A549 NSCLC) was 3320 nM. For the same molecule, the GI50 (ACHN renal) was 1750 nM, the TGI (ACHN renal) was 3200 nM and the GI50 (BT-549 breast) was 1550 nM. It also gave a TGI (BT-549 breast) of 2900 nM, a GI50 (CAKI-1 renal) of 1620 nM and a TGI (CAKI-1 renal) of 3220 nM. The GI50 (CCRF-CEM leukemia) was 1800 nM, the TGI (CCRF-CEM leukemia) was 3200 nM and the GI50 (COLO 205 colon) was 1790 nM. For the same molecule, the TGI (COLO 205 colon) was 3200 nM, the GI50 (DU-145 prostate) was 1880 nM and the TGI (DU-145 prostate) was 3490 nM. The GI50 (HCC-2998 colon) was 1600 nM, the TGI (HCC-2998 colon) was 2980 nM and the GI50 (HCT-116 colon) was 1630 nM. For the same molecule, the TGI (HCT-116 colon) was 3010 nM, the GI50 (HCT-15 colon) was 1610 nM and the TGI (HCT-15 colon) was 2990 nM. It also gave a GI50 (HL-60(TB) leukemia) of 2510 nM, a TGI (HL-60(TB) leukemia) of 5710 nM and a GI50 (HOP-62 NSCLC) of 1880 nM. It also gave a TGI (HOP-62 NSCLC) of 3340 nM, a GI50 (HOP-92 NSCLC) of 1650 nM and a TGI (HOP-92 NSCLC) of 3160 nM. For the same molecule, the GI50 (HT29 colon) was 832 nM, the TGI (HT29 colon) was 2090 nM and the GI50 (K-562 leukemia) was 1600 nM. For the same molecule, the TGI (K-562 leukemia) was 2970 nM, the GI50 (KM12 colon) was 1740 nM and the TGI (KM12 colon) was 3140 nM. The GI50 (LOX IMVI melanoma) was 1860 nM, the TGI (LOX IMVI melanoma) was 3270 nM and the GI50 (M14 melanoma) was 1710 nM. The TGI (M14 melanoma) was 3090 nM, the GI50 (MALME-3M melanoma) was 1410 nM and the TGI (MALME-3M melanoma) was 2720 nM. It also gave a GI50 (MCF7 breast) of 1550 nM, a TGI (MCF7 breast) of 2910 nM and a GI50 (MDA-MB-231 breast) of 1770 nM. For the same molecule, the TGI (MDA-MB-231 breast) was 3230 nM, the GI50 (MDA-MB-435 melanoma) was 2000 nM and the TGI (MDA-MB-435 melanoma) was 3440 nM. It also gave a GI50 (MDA-MB-468 breast) of 2030 nM, a TGI (MDA-MB-468 breast) of 3560 nM and a GI50 (MOLT-4 leukemia) of 1670 nM. It also gave a TGI (MOLT-4 leukemia) of 3060 nM, a GI50 (NCI-H226 lung) of 1680 nM and a TGI (NCI-H226 lung) of 3080 nM. The GI50 (NCI-H23 lung) was 3330 nM, the TGI (NCI-H23 lung) was 8850 nM and the GI50 (NCI-H322M lung) was 2020 nM. The TGI (NCI-H322M lung) was 4140 nM, the GI50 (NCI-H460 NSCLC) was 1800 nM and the TGI (NCI-H460 NSCLC) was 3240 nM. It also gave a GI50 (NCI-H522 lung) of 1770 nM, a TGI (NCI-H522 lung) of 3160 nM and a GI50 (NCI/ADR-RES ovarian) of 1820 nM. The TGI (NCI/ADR-RES ovarian) was 3720 nM, the GI50 (OVCAR-3 ovarian) was 1690 nM and the TGI (OVCAR-3 ovarian) was 3100 nM. It also gave a GI50 (OVCAR-4 ovarian) of 1560 nM, a TGI (OVCAR-4 ovarian) of 3770 nM and a GI50 (OVCAR-5 ovarian) of 2080 nM. The TGI (OVCAR-5 ovarian) was 3840 nM, the GI50 (OVCAR-8 ovarian) was 1770 nM and the TGI (OVCAR-8 ovarian) was 3190 nM. The GI50 (PC-3 prostate) was 1950 nM, the TGI (PC-3 prostate) was 3500 nM and the GI50 (RPMI-8226 leukemia) was 654 nM. The TGI (RPMI-8226 leukemia) was 1750 nM, the GI50 (RXF 393 renal) was 384 nM and the TGI (RXF 393 renal) was 1470 nM. For the same molecule, the GI50 (SF-268 CNS) was 1680 nM, the TGI (SF-268 CNS) was 3110 nM and the GI50 (SF-295 CNS) was 1840 nM. The TGI (SF-295 CNS) was 3250 nM, the GI50 (SF-539 CNS) was 1300 nM and the TGI (SF-539 CNS) was 2580 nM. The GI50 (SK-MEL-2 melanoma) was 1250 nM, the TGI (SK-MEL-2 melanoma) was 2500 nM and the GI50 (SK-MEL-28 melanoma) was 1580 nM. It also gave a TGI (SK-MEL-28 melanoma) of 2940 nM, a GI50 (SK-MEL-5 melanoma) of 1520 nM and a TGI (SK-MEL-5 melanoma) of 2860 nM. For the same molecule, the GI50 (SK-OV-3 ovarian) was 1710 nM, the TGI (SK-OV-3 ovarian) was 3100 nM and the GI50 (SN12C renal) was 1710 nM. It also gave a TGI (SN12C renal) of 3090 nM, a GI50 (SNB-19 CNS) of 1980 nM and a TGI (SNB-19 CNS) of 3480 nM. For the same molecule, the GI50 (SR leukemia) was 1290 nM, the TGI (SR leukemia) was 2570 nM and the GI50 (SW-620 colon) was 1940 nM. For the same molecule, the TGI (SW-620 colon) was 3380 nM, the GI50 (T-47D breast) was 1430 nM and the TGI (T-47D breast) was 2790 nM. For the same molecule, the GI50 (TK-10 renal) was 1920 nM, the TGI (TK-10 renal) was 3870 nM and the GI50 (U251 glioblastoma) was 1650 nM. The TGI (U251 glioblastoma) was 3030 nM, the GI50 (UACC-257 melanoma) was 1330 nM and the TGI (UACC-257 melanoma) was 2610 nM. The GI50 (UACC-62 melanoma) was 1870 nM, the TGI (UACC-62 melanoma) was 3290 nM and the GI50 (UO-31 renal) was 1760 nM. It also gave a TGI (UO-31 renal) of 3210 nM.
